Molecules are shown by their SMILES.

A short description of data set [1]: Comparative tissue distribution of 2-PMPA prodrugs versus equimolar 2-PMPA in nude mice (kidney 2-PMPA by LC/MS-MS). It is filed as in vivo. To be noted: 5 mg/kg or molar equivalent, i.p., 30 minutes. As to the method: Nude mice were administered either 2-PMPA or the prodrugs LTP-144 or Tris-POC-2-PMPA (compound 10 of Table 1) (5 mg/kg or molar equivalent, i.p.) prior to brief isoflurane anesthesia, saline perfusion, and sacrificed 30 minutes later. Kidneys were removed and flash frozen in liquid nitrogen. Each tissue sample was assessed for 2-PMPA concentration using previously described LC/MS-MS based bioanalysis (Majer et al., 2016). In addition, a prodrug of the urea-based PSMA ligand ZJ-43 (with similar pro-moiety modifications to Tris-POC-2-PMPA) was tested using similar methods.

The next data set addresses T1, renal PSMA (Mus musculus, UniProt O35409).
T1 construct: from tissue; host or cells: kidney of living NMRI mice (PET)
Put plainly: Displacement study of 68Ga-PSMA-617 in non-tumor-bearing NMRI mice (PET). The format is in vivo. Conditions: 0.5 mg/kg i.v. 1 h after tracer, scan 2 h after tracer. The procedure:
^68Ga-PSMA-617 was synthesized as described previously (Afshar-Oromieh et al., 2015). The specific activity of the radiopharmaceutical used in the presented animal study (20 MBq of ^68Ga tagged to 0.2-0.8 μg of precursor peptide) corresponds to the one used in clinical application (Afshar-Oromieh et al., 2015). Three non-tumor-bearing NMRI mice were injected via the tail vein with 20 MBq of ^68Ga-PSMA-617. 1 h post injection, enough time for specific tracer binding to renal PSMA and clearance of unbound tracer from the kidney calices, mice were imaged in a dedicated small animal PET-scanner (Siemens, Inveon) to quantify kidney uptake (baseline-scan). Immediately after the baseline scan 16 μg Tris-POC-2-PMPA (0.5 mg/kg*32.1 g bodyweight (BW) of all mice) in 100 μL saline was injected via the tail vein. Another 1 h later, i.e., 2 h after injection of the PET-tracer, ^68Ga-PSMA-617 kidney uptake was re-evaluated per animal PET (displacement-scan).

For data set [2], the system named is PSMA. Put plainly: Displacement study of 68Ga-PSMA-617 in LNCaP tumor xenograft bearing nude mice (PET). Conditions: average of two animals, 0.5 or 0.05 mg/kgBW after baseline scan; baseline mSUV 1.02; saline control mSUV 0.84. The format is in vivo. As to the method: (§1) 5*10^6 LNCaP cells (BD Biosciences) were implanted behind the left shoulder of n=3 nude mice; tumors reached a diameter of approximately 1-cm diameter 8-12 weeks after inoculation. Baseline uptake of the radiopharmaceutical in kidneys and tumor was quantified per animal PET-scan (Siemens, Inveon) 1 h after injection of ^68Ga-PSMA-617 (10-40 MBq ^68Ga tagged to […] PSMA-617 precursor). Immediately after the baseline scan animals were injected with 0.5 mg/kgBW or 0.05 mg/kgBW Tris-POC-2-PMPA in […] saline or pure saline as control. Another 1 h later, i.e., 2 h after injection of the PET-tracer, ^68Ga-PSMA-617 uptake in kidneys and tumor were re-evaluated per second animal PET (displacement scan).

Data set [3] addresses T2, PSMA (Mus musculus, UniProt O35409). Described as above. It is filed as in vivo. The arrangement: from tissue; host or cells: kidney of nude mice bearing LNCaP xenografts (PET). The procedure:
as §1

Data set [4] addresses T3, PSMA (Homo sapiens, UniProt Q04609). Put plainly: Kidney and salivary gland uptake of 68Ga-PSMA-617 in healthy human subject with and without Tris-POC-2-PMPA pre-dosing (PET). It is filed as in vivo. The arrangement: from tissue; host or cells: kidneys, salivary and lacrimal glands, and tumour lesions/metastases of living human subjects (PET / gamma imaging). As to the method:
From a couple of patients who had been imaged (Siemens, mCT) 0.1 h, 1 h, 2 h, 3 h and 4 h after injection of ^68Ga-PSMA-617 previously (Afshar-Oromieh et al., 2015), one subject without relevant tumor-load (<5 mL) was chosen to quantify the physiologic spontaneous tracer uptake in kidneys and salivary gland during the examination time. For the intervention experiment, one healthy volunteer was injected with […] (0.05 mg/kgBW) Tris-POC-2-PMPA solution (in 2.5 mL of 30% ethanol) 15 min before application of the PET-tracer. Again, PET-scans (Siemens, mCT) were performed 0.1 h, 1 h, 2 h, 3 h and 4 h after injection of ^68Ga-PSMA-617 and quantified per SUVmax for tracer uptake in kidneys and salivary glands over time.

Data set [5] deals with T3, PSMA. Put plainly: Tumor, kidney and salivary gland uptake of 68Ga-PSMA-617 in a prostate cancer patient with and without Tris-POC-2-PMPA pre-dosing (PET). It is filed as in vivo. The arrangement: from tissue; host or cells: kidneys, salivary and lacrimal glands, and tumour lesions/metastases of living human subjects (PET / gamma imaging). As to the method: One patient was PET imaged 1 h after injection of ^68Ga-PSMA-617 and quantified per SUVmax for tracer uptake in tumor, kidneys and salivary glands. On a subsequent day, the same patient was imaged using the same protocol but with pretreatment of 10 mg (0.1 mg/kgBW) Tris-POC-2-PMPA solution (in 2.5 mL of 30% ethanol) 15 min before application of the PET-tracer.

Data set [6] deals with T3, PSMA. Put plainly: 177Lu-PSMA-617 radiation dosimetry in mCRPC patients with Tris-POC-2-PMPA pre-treatment versus historical controls. The format is in vivo. The arrangement: from tissue; host or cells: kidneys, salivary and lacrimal glands, and tumour lesions/metastases of living human subjects (PET / gamma imaging). Conditions: for 177Lu-PSMA-617 absorbed dose, kidneys / 177Lu-PSMA-617 absorbed dose, parotid gland / 177Lu-PSMA-617 absorbed dose, submandibular gland / 177Lu-PSMA-617 mean dose to metastases: 15 minutes prior to infusion. The procedure: ^177Lu-PSMA-617 was offered as surrogate therapy in accordance with the updated Declaration of Helsinki, paragraph-37 “Unproven Interventions in Clinical Practice,” and in accordance with German regulations for “compassionate use,” which includes priority of all approved treatments (without contraindications) and confirmation of the indication by both a nuclear medicine physician and an external expert in urology or oncology. No systematic patient selection was performed, except all patients had to present with a PSMA-positive tumor phenotype based on PSMA imaging. All patients were informed about the experimental nature of this therapy and gave written informed consent. The institutional review board approved this retrospective study. Two patients were pre-treated with Tris-POC-2-PMPA prior to administration of ^177Lu-PSMA-617. […] Dosimetry data from historical controls presented herein are derived from patients treated under the same protocol at our center as previously reported (J Nucl Med. 2016 August; 57(8):1170-6.). All dosimetry methods were conducted as previously described in that report (J Nucl Med. 2016 August; 57(8):1170-6.).

Data set [7] in a line: Pharmacokinetics/tissue distribution of 2-PMPA in C4-2 prostate cancer tumor-bearing NSG mice. It is filed as in vivo. Conditions: 2-PMPA administered directly, 3 mg/kg i.v. As to the method: To generate a C4-2 in vivo model, 3×10^6 LNCaP-C4-2 cells were subcutaneously injected into the flanks of male NSG mice. When tumors grew to approximately 600-800 mm^3, tumors were excised, aseptically cut into 2-mm×2-mm pieces and frozen back viably (5% DMSO/95% FBS). Tumors were not passaged from mouse to mouse more than 4 times. For the current experiment, two vials of viably frozen explants were thawed at 37° C. Tumor explants were washed in RPMI without FCS and then surgically implanted in a subcutaneous pocket in male NSG mice. When tumors reached 600-800 mm^3, mice were euthanized, tumors excised aseptically, and cut into 2-mm×2-mm pieces prior to re-implantation into 40 mice. When tumors reached 500-700 mm^3, the pharmacokinetic experiment was performed. 2-PMPA (3 mg/kg, i.v.) or a molar equivalent of Tris-POC-2-PMPA (7.62 mg/kg, i.v.) were injected via tail vein after dissolution in vehicle (5% EtOH/10% Tween 80/85% 50 mM HEPES). Mice were then euthanized under isoflurane anesthesia 0.25, 0.5, 1, 3, or 6 hours later (n=3/group). Blood was collected by cardiac puncture into EDTA-lined tubes and stored on ice until plasma was isolated by centrifugation. Salivary glands, kidneys, and tumor were harvested and flash frozen on dry ice. All tissues were stored at −80° C. prior to bioanalysis.

For data set [8] the following is noted: cited from earlier work.
Data set [9] has as its target T3, PSMA. To be noted: 2-PMPA 0.01 mg co-injection with 177Lu-PSMA I&T (100 MBq); cited from earlier work.
The target in data set [10] is T2, PSMA. Conditions: 2-PMPA 0.01 mg co-injection with 177Lu-PSMA I&T (100 MBq); cited from earlier work.
The mark [11] stands for this setting: 10 mg, i.v., 15 minutes prior to tracer, PET 1 h p.i., same patient.

T2 sequence (O35409 whole entry): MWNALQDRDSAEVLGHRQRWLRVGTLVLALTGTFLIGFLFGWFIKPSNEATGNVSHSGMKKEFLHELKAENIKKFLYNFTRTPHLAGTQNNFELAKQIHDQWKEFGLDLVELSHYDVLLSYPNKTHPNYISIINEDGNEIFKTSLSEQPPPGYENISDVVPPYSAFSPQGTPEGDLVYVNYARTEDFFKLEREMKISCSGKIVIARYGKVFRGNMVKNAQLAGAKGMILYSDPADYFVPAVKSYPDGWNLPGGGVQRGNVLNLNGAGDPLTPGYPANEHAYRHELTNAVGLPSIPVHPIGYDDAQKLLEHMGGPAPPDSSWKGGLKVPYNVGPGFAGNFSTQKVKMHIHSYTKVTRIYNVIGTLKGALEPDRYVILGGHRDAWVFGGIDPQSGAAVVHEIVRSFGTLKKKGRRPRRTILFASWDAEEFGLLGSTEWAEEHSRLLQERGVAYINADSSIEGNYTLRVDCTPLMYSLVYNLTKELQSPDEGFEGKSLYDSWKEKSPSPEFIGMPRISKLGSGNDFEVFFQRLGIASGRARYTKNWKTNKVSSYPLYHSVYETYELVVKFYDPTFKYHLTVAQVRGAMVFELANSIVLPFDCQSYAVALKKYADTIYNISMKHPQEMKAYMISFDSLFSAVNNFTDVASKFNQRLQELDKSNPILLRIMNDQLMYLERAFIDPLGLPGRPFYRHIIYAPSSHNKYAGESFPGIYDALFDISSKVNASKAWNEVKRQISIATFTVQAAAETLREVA
T3 sequence (Q04609 whole entry): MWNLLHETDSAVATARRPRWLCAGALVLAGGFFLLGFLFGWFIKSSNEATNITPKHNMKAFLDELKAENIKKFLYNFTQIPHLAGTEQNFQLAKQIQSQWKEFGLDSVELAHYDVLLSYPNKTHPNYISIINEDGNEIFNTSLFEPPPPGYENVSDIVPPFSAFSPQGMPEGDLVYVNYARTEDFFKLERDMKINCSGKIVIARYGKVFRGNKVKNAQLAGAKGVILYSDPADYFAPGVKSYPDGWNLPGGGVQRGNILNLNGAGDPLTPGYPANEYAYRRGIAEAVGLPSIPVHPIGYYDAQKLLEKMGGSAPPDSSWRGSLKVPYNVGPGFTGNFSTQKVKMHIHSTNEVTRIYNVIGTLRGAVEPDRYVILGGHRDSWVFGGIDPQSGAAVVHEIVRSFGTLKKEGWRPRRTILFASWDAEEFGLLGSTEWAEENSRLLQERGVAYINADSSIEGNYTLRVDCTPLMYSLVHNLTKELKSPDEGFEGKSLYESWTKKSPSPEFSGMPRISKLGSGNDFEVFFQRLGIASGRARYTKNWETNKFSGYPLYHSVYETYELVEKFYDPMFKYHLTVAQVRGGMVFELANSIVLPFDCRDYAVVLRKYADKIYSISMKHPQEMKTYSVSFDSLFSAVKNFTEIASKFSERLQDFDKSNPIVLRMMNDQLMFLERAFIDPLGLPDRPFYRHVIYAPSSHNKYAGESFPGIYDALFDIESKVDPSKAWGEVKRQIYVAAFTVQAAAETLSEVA
T1 sequence (O35409 whole entry): as the sequence (O35409 whole entry) above

As to `CC(C)OC(=O)OCOC(=O)C(CCC(=O)O)CP(=O)(OCOC(=O)OC(C)C)OCOC(=O)OC(C)C` (stereo not shown) [Tris-POC-2-PMPA], the “concentrations of 2-PMPA in the kidney compared to an equimolar dose of 2-PMPA” value in data set [1] is on record as “significantly increased”. At renal PSMA, the “residual kidney uptake relative to baseline” value is recorded as < 10 % of baseline-uptake. On renal PSMA (baseline-scan 3.4 mSUV), the “residual kidney uptake of 68Ga-PSMA-617 in displacement-scan” value came out at 0.3 mSUV. Also, the “tumor uptake of 68Ga-PSMA-617 in displacement-scan” value with PSMA [2] turned out to be 1.00 mSUV. On PSMA [3] (0.5 or 0.05 mg/kgBW after baseline scan, baseline mSUV 2.36, saline control mSUV 0.47), the “kidney uptake of 68Ga-PSMA-617 in displacement-scan” value was 0.24 mSUV. For the same molecule, the “kidney uptake lower than achieved with forced diuresis (saline control)” value at PSMA [3] (displacement-scan, 2 h after tracer) came to 50%. In addition, on PSMA [4] (5 mg (0.05 mg/kgBW) 15 min before tracer, healthy volunteer), the “decrease of maximum 68Ga-PSMA-617 uptake in kidney parenchyma versus representative control” value is 65%. Also, the “maximum 68Ga-PSMA-617 uptake in parotid glands” value at PSMA [4] (5 mg (0.05 mg/kgBW) 15 min before tracer, control without pre-dosing 41.2) stood at 13.5 SUVmax. Besides, the “maximum 68Ga-PSMA-617 uptake in kidney parenchyma” value at PSMA [4] (5 mg (0.05 mg/kgBW) 15 min before tracer, control without pre-dosing 47.5) worked out at 16.5 SUVmax. Also, on PSMA [4] (pre-administration, healthy human male), the “displacement of 68Ga-PSMA-617 binding to kidney and salivary glands” value was “approximately 65%”. Also, the “mean change of 68Ga-PSMA-617 uptake in metastases” value on PSMA [5] (10 mg, i.v., 15 minutes prior to tracer) came to 3%. Besides, at PSMA [5] (setting [11]), the “68Ga-PSMA-617 uptake in kidneys after pre-treatment” value worked out at 8.5 SUVmax, the “68Ga-PSMA-617 uptake in metastases after pre-treatment” value is recorded as 3.9-8.8 SUVmax, the “68Ga-PSMA-617 uptake in parotid gland after pre-treatment” value was 10.6 SUVmax and the “68Ga-PSMA-617 uptake in submandibular gland after pre-treatment” value is recorded as 14.6 SUVmax. Moreover, the “effect on tumor uptake of the tracer” value at PSMA [5] (intraindividual comparison, prostate cancer patient) was “completely spared tumor uptake”. At PSMA [6] (patient 1, 10 mg, i.v.), the “177Lu-PSMA-617 absorbed dose, kidneys” value was 0.38 Gy/GBq; the “177Lu-PSMA-617 absorbed dose, parotid gland” value was 0.24 Gy/GBq; the “177Lu-PSMA-617 absorbed dose, submandibular gland” value was 0.5 Gy/GBq; the “177Lu-PSMA-617 mean dose to metastases” value worked out at 8.03 Gy/GBq. Further, on PSMA [6] (patient 2, 10 mg, i.v.), the “177Lu-PSMA-617 absorbed dose, kidneys” value was found to be 0.43 Gy/GBq; the “177Lu-PSMA-617 absorbed dose, parotid gland” value amounted to 0.46 Gy/GBq; the “177Lu-PSMA-617 absorbed dose, submandibular gland” value was 0.44 Gy/GBq; the “177Lu-PSMA-617 mean dose to metastases” value was 13.15 Gy/GBq. Moreover, at PSMA [6] (pre-treatment), the “effect on liver exposure to 177Lu-PSMA-617” value is given as “modestly reduce” and the “effect on spleen dose of 177Lu-PSMA-617” value is given as “no clear effect”. Also, at PSMA [6] (pre-treatment before 177Lu-PSMA-617), the “dose reduction to the lacrimal glands relative to mean control values” is “about 82%”. At PSMA [6] (pre-treatment, versus historical controls), the “effect on the 177Lu-PSMA-617 dose to metastases” value is “little or no effect”. At PSMA [6] (two patients, prior to infusion of 177Lu-PSMA-617), the “dose reduction, salivary glands, relative to historical controls” value came out at 72%. At PSMA [6] (two patients, 10 mg, i.v.), the “mean absorbed dose reduction, kidneys, relative to historical controls” value came to 45%; the “mean absorbed dose reduction, parotid gland, relative to historical controls” value is reported as 76%; the “mean absorbed dose reduction, submandibular gland, relative to historical controls” value was 67%. The “mean absorbed dose reduction, kidneys, relative to historical controls” value at PSMA [6] (two patients, 10 mg, i.v., listed as TRIS-POC-2-PMPA) amounted to 48%.

As to `O=C(O)CCC(CP(=O)(O)O)C(=O)O` (stereo not shown) [Compound 2-PMPA, 2-(phosphonomethyl)pentanedioic acid], in data set [7], the “2-PMPA kidney exposure, fold lower than achieved with TRIS-POC-2-PMPA delivery” value came out at 4 fold and the “2-PMPA salivary gland exposure, fold lower than achieved with TRIS-POC-2-PMPA delivery” value worked out at 10 fold. In data set [8] (2-PMPA administered as parent), the salivary gland penetration result was “little to no”. For the same molecule, the oral availability entry in data set [8] (in vivo, po) is on record as “negligible”. Besides, the “inhibition of tumor uptake of the radiotherapeutic” value at PSMA [9] is recorded as “more than 50%”. Further, on PSMA [10], the “nephrotoxicity 3 months later” value is “attenuated nephrotoxicity” and the “reduction of absorbed dose to the kidneys” value was 83%.

The values above are taken from patent publication US12508271B2, “Prodrugs of 2-PMPA for healthy tissue protection during PSMA-targeted cancer imaging or radiotherapy” (The Johns Hopkins University, priority 2017, dated 2025).
